Experimental data taken from patent US11464770B2, “Anticancer pharmaceutical composition” (NATIONAL CANCER CENTER, priority 2016, dated 2022).
Where two headings read alike, the source gives them in different places.

Columns and labels:
[1] = test system: breast cancer cell lines (e.g. MDA-MB-231, SK-BR-3, MDA-MB-468, HCC1954); experiment: Cell based assay, cell viability (CellTiter-Glo), breast cancer cell lines
Protocol: (§1) Commercially available bladder cancer, prostate cancer, lung cancer, breast cancer, blood cancer, pancreatic cancer, colorectal cancer, brain cancer, neuroblastoma, melanoma, liver cancer, cervical carcinoma, ovarian cancer, renal cancer, and papilloma cell lines were each treated with trypsin-EDTA and cultured, followed by being seeded in each well of a 96 well plate. After 24 hours of treatment at constant temperature, the respective cells were treated with the candidate compound so that a final concentration became 0 to 2 μM. The treated cells were additionally cultured for 72 hours, and cell viability was measured by using an ATP detection method (CellTiter-Glo® Luminescent Cell Viability Assay, Promega).

[2] = test system: RT4: human urinary bladder transitional cell papilloma; experiment: Cell based assay, cytotoxicity in RT4 papilloma cells (selectivity); conditions: Homo sapiens, RT-4; RT4 cells
Protocol: as §1, with “After 24 hours of treatment at constant temperature, the respective cells were treated with the candidate compound so that a final concentration became 0 to 2 μM.” left out

[3] = Breast cancer cell line MDA-MB-231-L/DOX, 72 hours, CellTiter-Glo, read-out: IC50, MDA-MB-231-L/DOX
[4] = Homo sapiens, Breast cancer cell line BT-20, 72 hours, CellTiter-Glo, read-out: IC50, BT-20
[5] = Homo sapiens, Breast cancer cell line HCC1395, 72 hours, CellTiter-Glo, read-out: IC50, HCC1395
[6] = Homo sapiens, Breast cancer cell line HCC1954, 72 hours, CellTiter-Glo, read-out: IC50, HCC1954
[7] = Homo sapiens, Breast cancer cell line JIMT-1, 72 hours, CellTiter-Glo, read-out: IC50, JIMT-1
[8] = Homo sapiens, Breast cancer cell line MCF7, 72 hours, CellTiter-Glo, read-out: IC50, MCF7
[9] = Homo sapiens, Breast cancer cell line MDA-MB-231, 72 hours, CellTiter-Glo, read-out: IC50, MDA-MB-231
[10] = Homo sapiens, Breast cancer cell line MDA-MB-468, 72 hours, CellTiter-Glo, read-out: IC50, MDA-MB-468
[11] = Homo sapiens, Breast cancer cell line SK-BR-3, 72 hours, CellTiter-Glo, read-out: IC50, SK-BR-3
[12] = Homo sapiens, BT-20 cells, 72 hours treatment, CellTiter-Glo cell viability, read-out: IC50, Breast cancer cell line BT-20
[13] = Homo sapiens, HCC1395 cells, 72 hours treatment, CellTiter-Glo cell viability, read-out: IC50, Breast cancer cell line HCC1395
[14] = Homo sapiens, HCC1954 cells, 72 hours treatment, CellTiter-Glo cell viability, read-out: IC50, Breast cancer cell line HCC1954
[15] = Homo sapiens, JIMT-1 cells, 72 hours treatment, CellTiter-Glo cell viability, read-out: IC50, Breast cancer cell line JIMT-1
[16] = Homo sapiens, MCF7 cells, 72 hours treatment, CellTiter-Glo cell viability, read-out: IC50, Breast cancer cell line MCF7
[17] = Homo sapiens, MDA-MB-231 cells, 72 hours treatment, CellTiter-Glo cell viability, read-out: IC50, Breast cancer cell line MDA-MB-231
[18] = Homo sapiens, MDA-MB-468 cells, 72 hours treatment, CellTiter-Glo cell viability, read-out: IC50, Breast cancer cell line MDA-MB-468
[19] = Homo sapiens, SK-BR-3 cells, 72 hours treatment, CellTiter-Glo cell viability, read-out: IC50, Breast cancer cell line SK-BR-3
[20] = MDA-MB-231-L/DOX cells, 72 hours treatment, CellTiter-Glo cell viability, read-out: IC50, Breast cancer cell line MDA-MB-231-L/DOX

Row | SMILES | IC50 [1, 3] | IC50 [1, 4] | IC50 [1, 5] | IC50 [1, 6] | IC50 [1, 7] | IC50 [1, 8] | IC50 [1, 9] | IC50 [1, 10] | IC50 [1, 11] | IC50 [2] | IC50 [1, 12] | IC50 [1, 13] | IC50 [1, 14] | IC50 [1, 15] | IC50 [1, 16] | IC50 [1, 17] | IC50 [1, 18] | IC50 [1, 19] | IC50 [1, 20]
1 | CC(=O)c1c(SCc2cccc(F)c2)[nH]c2c(Br)ccc(Cl)c2c1=O [Compound 49, 3-acetyl-8-bromo-5-chloro-2-((3-fluorobenzyl)thio)quinolin-4(1H)-one] | > 2 µM | > 2 µM | > 10 µM | > 2 µM | > 10 µM | > 2 µM | > 2 µM | > 2 µM | > 2 µM | > 10 µM | – | – | – | – | – | – | – | – | –
2 | CC(=O)c1c(SCc2ccccc2)nc2c(Br)ccc(Cl)c2c1O [Compound 52, 1-(2-(benzylthio)-8-bromo-5-chloro-4-hydroxyquinolin-3-yl)ethan-1-one] | > 2 µM | > 2 µM | > 10 µM | > 2 µM | > 10 µM | > 2 µM | > 2 µM | > 2 µM | > 2 µM | > 10 µM | – | – | – | – | – | – | – | – | –
3 | CC(=O)c1c([S+]([O-])Cc2ccccc2)nc2c(Br)ccc(Cl)c2c1O (stereo not shown) [Compound 53, 1-(2-(benzylsulfinyl)-8-bromo-5-chloro-4-hydroxyquinolin-3-yl)ethan-1-one] | > 2 µM | > 2 µM | > 10 µM | > 2 µM | > 10 µM | > 2 µM | > 2 µM | > 2 µM | > 2 µM | > 10 µM | – | – | – | – | – | – | – | – | –
4 | CC(=O)c1c(S(=O)(=O)Cc2ccccc2)nc2c(Br)ccc(Cl)c2c1O [Compound 54, 1-(2-(benzylsulfonyl)-8-bromo-5-chloro-4-hydroxyquinolin-3-yl)ethan-1-one] | > 2 µM | > 2 µM | > 10 µM | > 2 µM | > 10 µM | > 2 µM | > 2 µM | > 2 µM | > 2 µM | > 10 µM | – | – | – | – | – | – | – | – | –
5 | CC(=O)c1c([S+]([O-])Cc2ccccc2C#N)[nH]c2c(Br)ccc(Cl)c2c1=O (stereo not shown) [Compound 58, 2-(((3-acetyl-8-bromo-5-chloro-4-oxo-1,4-dihydroquinolin-2-yl)sulfinyl)methyl)benzonitrile] | > 2 µM | > 2 µM | > 10 µM | > 2 µM | > 10 µM | > 2 µM | > 2 µM | > 2 µM | 0.62 µM | > 10 µM | – | – | – | – | – | – | – | – | –
6 | COCSc1[nH]c2c(Br)ccc(Cl)c2c(=O)c1C(C)=O [Compound 61, 3-acetyl-8-bromo-5-chloro-2-((methoxymethyl)thio)quinolin-4(1H)-one] | > 2 µM | > 2 µM | > 10 µM | > 2 µM | > 10 µM | > 2 µM | > 2 µM | > 2 µM | > 2 µM | > 10 µM | – | – | – | – | – | – | – | – | –
7 | CC(=O)c1c(S)[nH]c2c(Br)ccc(Cl)c2c1=O [Compound 62, 3-acetyl-8-bromo-5-chloro-2-mercaptoquinolin-4(1H)-one] | > 2 µM | > 2 µM | > 10 µM | > 2 µM | > 10 µM | > 2 µM | > 2 µM | > 2 µM | > 2 µM | > 10 µM | – | – | – | – | – | – | – | – | –
8 | CC(=O)c1c([S+]([O-])Cc2ccc(C(=O)c3ccccc3)cc2)[nH]c2c(Br)ccc(Cl)c2c1=O (stereo not shown) [Compound 63, 3-acetyl-2-((4-benzoylbenzyl)sulfinyl)-8-bromo-5-chloroquinolin-4(1H)-one] | > 2 µM | > 2 µM | > 10 µM | > 2 µM | > 10 µM | > 2 µM | > 2 µM | > 2 µM | > 2 µM | > 10 µM | – | – | – | – | – | – | – | – | –
9 | CC(=O)c1c([S+]([O-])CC#N)[nH]c2c(Br)ccc(Cl)c2c1=O (stereo not shown) [Compound 65, 2-((3-acetyl-8-bromo-5-chloro-4-oxo-1,4-dihydroquinolin-2-yl)sulfinyl)acetonitrile] | > 2 µM | > 2 µM | > 10 µM | > 2 µM | > 10 µM | > 2 µM | > 2 µM | > 2 µM | > 2 µM | > 10 µM | – | – | – | – | – | – | – | – | –
10 | CC(=O)c1c(SCC#N)[nH]c2c(Br)ccc(Cl)c2c1=O [Compound 66, 2-((3-acetyl-8-bromo-5-chloro-4-oxo-1,4-dihydroquinolin-2-yl)thio)acetonitrile] | > 2 µM | > 2 µM | > 10 µM | > 2 µM | > 10 µM | > 2 µM | > 2 µM | > 2 µM | > 2 µM | > 10 µM | – | – | – | – | – | – | – | – | –
11 | CC(=O)c1c(S/C=C\C(=O)O)[nH]c2c(Br)ccc(Cl)c2c1=O [Compound 67, (Z)-3-((3-acetyl-8-bromo-5-chloro-4-oxo-1,4-dihydroquinolin-2-yl)thio)acrylic acid] | > 2 µM | > 2 µM | > 10 µM | > 2 µM | > 10 µM | > 2 µM | > 2 µM | > 2 µM | > 2 µM | > 10 µM | – | – | – | – | – | – | – | – | –
12 | CC(=O)c1c([S+]([O-])Cc2ccc(S(F)(F)(F)(F)F)cc2)[nH]c2c(Br)ccc(Cl)c2c1=O (stereo not shown) [Compound 68, 3-acetyl-8-bromo-5-chloro-2-((4-(pentafluoro-16-sulfanyl)benzyl)sulfinyl)quinolin-4(1H)-one] | > 2 µM | > 2 µM | > 10 µM | > 2 µM | > 10 µM | > 2 µM | 1.22 µM | > 2 µM | 1.23 µM | > 10 µM | – | – | – | – | – | – | – | – | –
13 | CC(=O)c1c([S+]([O-])Cc2ccc(S(F)(F)(F)(F)F)cc2F)[nH]c2c(Br)ccc(Cl)c2c1=O (stereo not shown) [Compound 69, 3-acetyl-8-bromo-5-chloro-2-((2-fluoro-4-(pentafluoro-16-sulfanyl)benzyl)sulfinyl)quinolin-4(1H)-one] | > 2 µM | > 2 µM | > 10 µM | > 2 µM | > 10 µM | > 2 µM | 1.37 µM | > 2 µM | 1.45 µM | > 10 µM | – | – | – | – | – | – | – | – | –
14 | CC(=O)c1c([S+]([O-])Cc2cccc(S(F)(F)(F)(F)F)c2)[nH]c2c(Br)ccc(Cl)c2c1=O (stereo not shown) [Compound 77, 3-acetyl-8-bromo-5-chloro-2-((3-(pentafluoro--sulfanyl)benzyl)sulfinyl)quinolin-4(1H)-one] | > 2 µM | > 2 µM | > 10 µM | > 2 µM | > 10 µM | > 2 µM | > 2 µM | > 2 µM | 1.44 µM | > 10 µM | – | – | – | – | – | – | – | – | –
15 | CC(=O)c1c([S+]([O-])Cc2ccc(SC(F)(F)F)cc2)[nH]c2c(Cl)ccc(Cl)c2c1=O (stereo not shown) [Compound 79, 3-acetyl-5,8-dichloro-2-((4-((trifluoromethyl)thio)benzyl)sulfinyl)quinolin-4(1H)-one] | > 2 µM | > 2 µM | > 10 µM | > 2 µM | > 10 µM | > 2 µM | > 2 µM | > 2 µM | > 2 µM | > 10 µM | – | – | – | – | – | – | – | – | –
16 | CC(=O)c1c([S+]([O-])Cc2ccc(S(F)(F)(F)(F)F)cc2)[nH]c2c(F)ccc(F)c2c1=O (stereo not shown) [Compound 80, 3-acetyl-5,8-difluoro-2-((4-(pentafluoro--sulfanyl)benzyl)sulfinyl)quinolin-4(1H)-one] | > 2 µM | > 2 µM | > 10 µM | > 2 µM | > 10 µM | > 2 µM | > 2 µM | > 2 µM | > 2 µM | > 10 µM | – | – | – | – | – | – | – | – | –
17 | CC(=O)c1c([S+]([O-])Cc2ccc(C(F)(F)F)o2)[nH]c2c(F)ccc(F)c2c1=O (stereo not shown) [Compound 81, 3-acetyl-5,8-difluoro-2-(((5-(trifluoromethyl)furan-2-yl)methyl)sulfinyl)quinolin-4(1H)-one] | > 2 µM | > 2 µM | > 10 µM | > 2 µM | > 10 µM | > 2 µM | > 2 µM | > 2 µM | > 2 µM | > 10 µM | – | – | – | – | – | – | – | – | –
18 | CC(=O)c1c([S+]([O-])Cc2cc(C)on2)[nH]c2c(F)ccc(F)c2c1=O (stereo not shown) [Compound 82, 3-acetyl-5,8-difluoro-2-(((5-methylisoxazol-3-yl)methyl)sulfinyl)quinolin-4(1H)-one] | – | – | – | – | – | – | – | – | – | > 10 µM | > 2 µM | > 10 µM | > 2 µM | > 10 µM | > 2 µM | > 2 µM | > 2 µM | 1.77 µM | > 2 µM
19 | CC(C)C(=O)c1c([S+]([O-])Cc2ccc(SC(F)(F)F)cc2)[nH]c2c(F)ccc(F)c2c1=O (stereo not shown) [Compound 85, 5,8-difluoro-3-isobutyryl-2-((4-((trifluoromethyl)thio)benzyl)sulfinyl)quinolin-4(1H)-one] | – | – | – | – | – | – | – | – | – | > 10 µM | > 2 µM | > 10 µM | > 2 µM | > 10 µM | > 2 µM | > 2 µM | > 2 µM | > 2 µM | > 2 µM
